Entries after “also recorded” stand apart in the source; their conditions may differ.
Assays:
[1] = system: GLUT1; parameters: method as in Siebeneicher et al., 2016; conditions: SAR of Bayer compounds; ref Siebeneicher et al., 2016; cited from earlier work
[2] = biological target: T1, GLUT3exo (GLUT3 S64W and I305W) (Homo sapiens, UniProt P11169, I305W/N43T/S64W); test: biochemical; format: binding; conditions: for Figure 1e right: MST binding curve, Mean: GLUT3 dTrp mutant, log [phloretin]
T1 construct: His10 (N); made in house; host or cells: Sf9 insect cells (baculovirus)
Description: Following the same principle for the engineering of XylE-WW, we introduced two Trp substitutions, S64W and I305W, on the extracellular segments of TM2 and TM8 of GLUT3, respectively. This variant will be referred to as GLUT3exo hereafter (Fig. 1a). The two bulky substituents were expected to trap GLUT3 in an outward-facing conformation.
(§1) All mutants were generated by standard PCR-based strategy.
(§2) Inhibitors with serial dilutions were mixed with indicated protein. […] MST analyses were conducted on a Monolith NT. […] The MST data was analyzed by Monolith NT.115.

[3] = biological target: T2, WT GLUT3 (Homo sapiens, UniProt P11169, N43T); test: Microscale thermophoresis (MST) binding assay; parameters: Figure 1e middle: MST binding curve, Mean / Figure 1e right: MST binding curve, Mean / Figure 2c: MST binding curve, Mean: unit not given here; conditions: for Figure 1e right: MST binding curve, Mean: GLUT3, log [phloretin]
T2 construct: His10 (N); made in house; host or cells: Sf9 insect cells (baculovirus)
T2 sequence (P11169 1-496 N43T): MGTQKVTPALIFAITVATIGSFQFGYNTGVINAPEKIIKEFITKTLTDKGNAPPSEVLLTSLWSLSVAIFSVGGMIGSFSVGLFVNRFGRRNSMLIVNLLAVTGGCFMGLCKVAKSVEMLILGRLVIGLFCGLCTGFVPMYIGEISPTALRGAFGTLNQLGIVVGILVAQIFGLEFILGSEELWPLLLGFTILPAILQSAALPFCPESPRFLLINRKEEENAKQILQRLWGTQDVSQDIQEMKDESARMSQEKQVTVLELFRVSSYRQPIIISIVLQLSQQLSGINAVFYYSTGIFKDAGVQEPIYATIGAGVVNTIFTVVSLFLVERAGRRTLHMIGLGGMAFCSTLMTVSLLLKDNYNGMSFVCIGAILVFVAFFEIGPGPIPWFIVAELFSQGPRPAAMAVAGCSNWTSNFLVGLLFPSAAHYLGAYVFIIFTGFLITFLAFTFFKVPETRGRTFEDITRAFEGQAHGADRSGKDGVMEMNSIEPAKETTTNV
Description: as §1, §2

T1 sequence (P11169 whole entry N43T/S64W/I305W): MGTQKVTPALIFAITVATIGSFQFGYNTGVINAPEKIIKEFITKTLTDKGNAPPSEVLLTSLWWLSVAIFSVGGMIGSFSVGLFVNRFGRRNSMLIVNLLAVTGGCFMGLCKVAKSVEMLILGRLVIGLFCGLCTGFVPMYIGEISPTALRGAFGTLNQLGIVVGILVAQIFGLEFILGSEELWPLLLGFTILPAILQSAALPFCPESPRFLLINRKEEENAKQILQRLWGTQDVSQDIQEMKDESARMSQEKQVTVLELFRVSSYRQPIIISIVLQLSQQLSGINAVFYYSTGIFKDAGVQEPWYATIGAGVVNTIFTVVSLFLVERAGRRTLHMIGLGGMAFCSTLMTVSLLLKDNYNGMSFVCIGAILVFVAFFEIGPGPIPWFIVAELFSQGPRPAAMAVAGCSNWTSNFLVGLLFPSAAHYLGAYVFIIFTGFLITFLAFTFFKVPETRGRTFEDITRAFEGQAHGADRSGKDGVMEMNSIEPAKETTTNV

COc1ccccc1N1CCN(c2ncnc3c2cnn3-c2ccccc2)CC1 [cmpd 3]
GLUT1 potency [1]: increased the potency

FC(F)(F)Oc1ccccc1N1CCN(c2ncnc3c2cnn3-c2ccccc2)CC1 [cmpd 4]
GLUT1 potency [1]: completely inactive

FC(F)(F)c1ccccc1N1CCN(c2ncnc3c2cnn3-c2ccccc2)CC1 [cmpd 6]
GLUT1 potency [1]: completely inactive

COc1cccc(N2CCN(c3ncnc4c3cnn4-c3ccccc3)CC2)c1 [cmpd 8]
GLUT1 potency [1]: decreased the GLUT1 potency

COc1ccc(N2CCN(c3ncnc4c3cnn4-c3ccccc3)CC2)cc1 [cmpd 10]
GLUT1 potency [1]: decreased the GLUT1 potency

COc1ccccc1N1CCN(c2ncnc3c2cnn3-c2ccccc2)CC1C (stereo not shown) [cmpd 37]
GLUT1 potency [1]: tolerated

COc1ccccc1N1CC2(C1)CN(c1ncnc3c1cnn3-c1ccccc1)C2 [cmpd 41]
GLUT1 potency [1]: less potent

COc1ccccc1N1CCCN(c2ncnc3c2cnn3-c2ccccc2)CC1 [cmpd 42]
GLUT1 potency [1]: increased the potency

COc1ccccc1N1CCN(c2ncnc3c2cnn3-c2ccccc2F)CC1 [cmpd 49]
GLUT1 potency [1]: without significant loss of GLUT1 inhibition activity; also recorded: increased the potency

COc1ccccc1N1CCN(c2ncnc3c2cnn3-c2ccccn2)CC1 [cmpd 63]
GLUT1 potency [1]: significantly reduced the potency

COc1ccccc1N1CCN(c2ncnc3c2cnn3-c2ncccc2F)CC1 [cmpd 66]
GLUT1 potency [1]: significantly reduced the potency

COc1ccccc1N1CCN(c2ncnc3c2cnn3-c2ccccc2OC)CC1 [compound 50]
GLUT1 potency [1]: without significant loss of GLUT1 inhibition activity

COc1ccccc1N1CCN(c2ncnc3c2cnn3-c2ccccc2C)CC1 [compound 51]
GLUT1 potency [1]: without significant loss of GLUT1 inhibition activity

COc1ccccc1N1CCN(c2ncnc3c2cnn3-c2cccnc2)CC1 [compound 64]
GLUT1 potency [1]: significantly reduced the potency

COc1ccccc1N1CCN(c2ncnc3c2cnn3-c2ccncc2)CC1 [compound 65]
GLUT1 potency [1]: significantly reduced the potency

O=C(CCc1ccc(O)cc1)c1c(O)cc(O)cc1O [phloretin]
Kd [2]: 15.5 ± 1.5 µM
Figure 1e right: MST binding curve, Mean ([2]; M -3.30103): 98.0572
Figure 1e right: MST binding curve, Mean ([2]; M -3.60206): 93.8274
Figure 1e right: MST binding curve, Mean ([2]; M -3.90309): 89.3364
Figure 1e right: MST binding curve, Mean ([2]; M -4.20412): 79.2593
Figure 1e right: MST binding curve, Mean ([2]; M -4.50515): 66.4804
Figure 1e right: MST binding curve, Mean ([2]; M -4.80618): 46.5416
Figure 1e right: MST binding curve, Mean ([2]; M -5.10721): 34.4965
Figure 1e right: MST binding curve, Mean ([2]; M -5.40824): 22.7361
Figure 1e right: MST binding curve, Mean ([2]; M -5.70927): 13.3872
Figure 1e right: MST binding curve, Mean ([2]; M -6.0103): 7.2146
Figure 1e right: MST binding curve, Mean ([2]; M -6.31133): 0.8877
Figure 1e right: MST binding curve, Mean ([2]; M -6.61236): 6.4707
Figure 1e right: MST binding curve, Mean ([2]; M -6.91339): 2.3532
Figure 1e right: MST binding curve, Mean ([2]; M -7.21442): 1.6413
Figure 1e right: MST binding curve, Mean ([2]; M -7.51545): 0.1149
Figure 1e right: MST binding curve, Mean ([2]; M -7.81648): 2.456
Figure 1e right: MST binding curve, Mean ([3]; M -3.30103): 99.1935
Figure 1e right: MST binding curve, Mean ([3]; M -3.60206): 89.7967
Figure 1e right: MST binding curve, Mean ([3]; M -3.90309): 81.0827
Figure 1e right: MST binding curve, Mean ([3]; M -4.20412): 66.445
Figure 1e right: MST binding curve, Mean ([3]; M -4.50515): 50.3655
Figure 1e right: MST binding curve, Mean ([3]; M -4.80618): 41.2635
Figure 1e right: MST binding curve, Mean ([3]; M -5.10721): 25.71
Figure 1e right: MST binding curve, Mean ([3]; M -5.40824): 15.7731
Figure 1e right: MST binding curve, Mean ([3]; M -5.70927): 5.8894
Figure 1e right: MST binding curve, Mean ([3]; M -6.0103): 4.0557
Figure 1e right: MST binding curve, Mean ([3]; M -6.31133): 2.0286
Figure 1e right: MST binding curve, Mean ([3]; M -6.61236): 4.4085
Figure 1e right: MST binding curve, Mean ([3]; M -6.91339): 1.9121
Figure 1e right: MST binding curve, Mean ([3]; M -7.21442): -7.4814
Figure 1e right: MST binding curve, Mean ([3]; M -7.51545): -2.4182
Figure 1e right: MST binding curve, Mean ([3]; M -7.81648): 0.9156
Kd ([3]; WT GLUT3): 26.3 ± 3.2 µM

Reference: paper PMC9098912, “Molecular basis for inhibiting human glucose transporters by exofacial inhibitors” (Nature Communications, 2022)
